# Results from patent publication US9943536B2, “Reactivation of HIV-1 gene expression to treat persistent HIV infection” (UNIVERSITÉ LIBRE DE BRUXELLES, priority 2011, dated 2018).
# Values joined by “and” are separate entries in the source; they are usually repeats but may differ in a detail not shown here. Equal entries are not always repeated.
# Key:
# Type in all cases: cell-based
# [1] = tested on: HIV-1 in HLA DR− CD25− CD69− CD4+ T cells from HIV-1-infected cART-treated patients; assay: HIV-1 recovery in resting memory (HLA DR− CD25− CD69−) CD4+ T cells from cART-treated patients; conditions: for concentration of viral RNA in culture supernatants: HLA DR− CD25− CD69− CD4+ T cells, six days after treatment
# Protocol: Further to Table 3: Cultures of patient cells were mock-treated or treated with indicated compounds. Six days after treatment, the concentration of viral RNA in culture supernatants was determined (in copies/ml; l means below the threshold and ‘/’ indicates an untested condition). Total HIV-1 DNA is expressed as HIV-1 DNA copies/10^6 cells or as log HIV-1 DNA copies/10^6 cells.
# FIG. 3. […] Cultures of resting memory CD4^+ T cells were mock-treated or treated as indicated. Six days after treatment, the concentration of viral RNA in culture supernatants was measured (in copies/ml). […] The reactivated patient cultures were classified in relevant categories where HIV-1 recovery after the combined treatment presented a higher viral production than after the individual treatment. […] The reactivated patient cultures were subdivided in two relevant categories: (b1) cultures in which HIV-1 recovery after the combined treatment was higher than after the individual treatments, (b2) and cultures in which a synergistic reactivation of viral RNA production was observed after the combined treatments.
# (§1) Table 4. […] Cultures of resting memory CD4^+ T cells were mock-treated or treated with BIX-01294. Six days after treatment, the concentration of viral RNA in culture supernatants was determined in copies/ml (l indicates below the threshold).
# as §1, with “FIG.” for “Table”, “BIX-01294 alone, with SAHA alone or with the combinationSAHA+BIX-01294.” for “BIX-01294.”, “(I” for “(l”
# Cultures of 2.5×10^5 HLA DR^− CD 25 CD69^− CD4^+ T cells were mock-treated or treated with BIX-01294. Six days after treatment, the concentration of viral RNA in culture supernatants was determined (Table 4).
# [2] = tested on: HIV-1 in CD8+-depleted PBMCs from HIV-1-infected cART-treated patients; assay: HIV-1 recovery in ex-vivo cultures of CD8+-depleted PBMCs from cART-treated patients; conditions: for concentration of viral RNA in culture supernatants: six days after treatment
# Protocol: Table 1. […] Cultures of CD8^+-depleted PBMCs were mock-treated or treated with chaetocin (30, 60 or 90 nmol/l) or with the positive control. Six days after treatment, the concentration of viral RNA in culture supernatants was determined (in copies/ml; ‘l’ indicates below the threshold).
# (§2) (a) Cultures of CD8^+-depleted PBMCs were mock-treated or treated with chaetocin (90 nmol/l). Six days after treatment, the concentration of viral RNA in culture supernatants was determined. Total HIV-1 DNA is expressed as HIV-1 DNA copies/10^6 cells or as log HIV-1 DNA copies/10^6 cells (‘/’ indicates not-tested condition). (b) Limiting-dilution cultures of HLA DR^− CD4^+ T cells were mock-treated or treated with chaetocin (45 or 90 nmol/l). The concentration of viral RNA in culture supernatants was determined. The last positive dilution culture indicates the presence of at least one cell carrying replication-competent and chaetocin-responsive virus.
# (§3) Cultures comprising 6.10^6 CD8^+-depleted PBMCs were mock-treated or treated with chaetocin. Six days after treatment, the concentration of viral RNA in culture supernatants was determined by the Amplicor method (Roche Diagnostics). The results are depicted in Table 1 and 2A. The percentage of reactivation was calculated on all patients reactivated. Nine out of the eighteen tested PBMC cultures reactivated HIV-1 expression in response to chaetocin treatment, while none of them did when mock-treated. Subsequently, limiting-dilution cultures of HLA DR^− CD4^+ T cells were performed and these cultures were mock-treated or treated with chaetocin. The last positive dilution culture indicates the presence of at least one cell carrying replication-competent HIV-1 virus. The concentration of viral RNA in culture supernatants was determined by the Amplicor method (Roche Diagnostics). Values are expressed in HIV-1 RNA copies/ml.
# [3] = tested on: HIV-1 in HLA DR− CD4+ T cells from HIV-1-infected cART-treated patients; assay: HIV-1 recovery in limiting-dilution cultures of HLA DR− CD4+ T cells from cART-treated patients; conditions: for concentration of viral RNA in culture supernatants: limiting dilution, one line per patient
# Protocol: as §2, §3
# [4] = one line per patient culture H19-H34 (Table 3), l = below the threshold
smiles,measurement,setting,value
CN1C(=O)[C@@]23C[C@]4([C@]56C[C@@]78SS[C@@](CO)(C(=O)N7[C@H]5Nc5ccccc56)N(C)C8=O)c5ccccc5N[C@@H]4N2C(=O)[C@]1(CO)SS3 [chaetocin],concentration of viral RNA in culture supernatants,[1]; [4],832 copies/ml and 180 copies/ml and 2780 copies/ml and 1244 copies/ml and 1616 copies/ml and 2000 copies/ml and 680 copies/ml and 4944 copies/ml and 300 copies/ml and 328 copies/ml and 2456 copies/ml and 1000 copies/ml
same,% of reactivation,"[2]; 18 patients H1-H18, chaetocin 90 nmol/l or positive control",50%
same,concentration of viral RNA in culture supernatants,"[2]; CD8+-depleted PBMCs, one line per patient culture H1-H18 (Table 3), l = below the threshold",1825 copies/ml and 354 copies/ml and 2057 copies/ml and 2371 copies/ml and 1566 copies/ml and 797 copies/ml and 477 copies/ml and 2388 copies/ml and 467 copies/ml
same,Reactivated patients,"[2]; chaetocin 30 nM, of 6 patients H1-H6",1
same,concentration of viral RNA in culture supernatants,"[2]; chaetocin 30 nM, one line per patient culture, I = below the threshold",1139 copies/ml
same,Reactivated patients,"[2]; chaetocin 60 nM, of 6 patients H1-H6",3
same,concentration of viral RNA in culture supernatants,"[2]; chaetocin 60 nM, one line per patient culture, I = below the threshold",222 copies/ml and 452 copies/ml and 1924 copies/ml
same,Reactivated patients,"[2]; chaetocin 90 nM, of 6 patients H1-H6",4
same,concentration of viral RNA in culture supernatants,"[2]; chaetocin 90 nM, one line per patient culture, I = below the threshold",2371 copies/ml and 1825 copies/ml and 354 copies/ml and 2057 copies/ml
same,concentration of viral RNA in culture supernatants,"[2]; chaetocin 90 nmol/l, one line per patient culture H1-H18, I = below the threshold",2371 copies/ml and 1566 copies/ml and 797 copies/ml and 477 copies/ml and 2388 copies/ml and 467 copies/ml and 1825 copies/ml and 354 copies/ml and 2057 copies/ml
same,"HIV-1 recovery, share of CD8+-depleted PBMCs cultures",[2]; cultures from HIV-1+ cART-treated patients (Table 2a),50%
same,Reactivated patients,"[2]; of 18 patients H1-H18, chaetocin 90 nmol/l or positive control",9
same,concentration of viral RNA in culture supernatants,"[3]; chaetocin 45 nM, 1.5 × 10^6 cells",288 copies/ml and 831 copies/ml
same,concentration of viral RNA in culture supernatants,"[3]; chaetocin 45 nM, 5 × 10^5 cells",179 copies/ml and 245 copies/ml and 89 copies/ml and 97 copies/ml and 769 copies/ml
same,concentration of viral RNA in culture supernatants,"[3]; chaetocin 45 nM, 10^5 cells",83 copies/ml and 238 copies/ml
same,concentration of viral RNA in culture supernatants,"[3]; chaetocin 45 nM, 10^6 cells",284 copies/ml and 94 copies/ml and 292 copies/ml and 702 copies/ml
same,concentration of viral RNA in culture supernatants,"[3]; chaetocin 90 nM, 1.5 × 10^6 cells",377 copies/ml and 1050 copies/ml
same,concentration of viral RNA in culture supernatants,"[3]; chaetocin 90 nM, 5 × 10^4 cells",76 copies/ml
same,concentration of viral RNA in culture supernatants,"[3]; chaetocin 90 nM, 5 × 10^5 cells",147 copies/ml and 118 copies/ml and 68 copies/ml and 52 copies/ml and 1043 copies/ml
same,concentration of viral RNA in culture supernatants,"[3]; chaetocin 90 nM, 10^5 cells",51 copies/ml and 50 copies/ml and 47 copies/ml and 359 copies/ml
same,concentration of viral RNA in culture supernatants,"[3]; chaetocin 90 nM, 10^6 cells",178 copies/ml and 131 copies/ml and 791 copies/ml
same,"HIV-1 recovery, share of resting CD4+ T-cell cultures",[3]; cultures from HIV-1+ cART-treated patients (Table 2b),86%
"CC(=O)O[C@@]12C[C@@H](C)[C@@]3(O)[C@@H](C=C(CO)C[C@]4(O)C(=O)C(C)=C[C@@H]34)[C@@H]1C2(C)C [prostratin, 12-deoxyphorbol 13-acetate]",concentration of viral RNA in culture supernatants,[1]; [4],612 copies/ml and 1380 copies/ml and 1064 copies/ml and 2508 copies/ml and 2540 copies/ml and 3532 copies/ml and 704 copies/ml and 420 copies/ml
"O=C(CCCCCCC(=O)Nc1ccccc1)NO [SAHA, suberoylanilide hydroxamic acid]",concentration of viral RNA in culture supernatants,[1]; [4],624 copies/ml and 520 copies/ml and 252 copies/ml and 2248 copies/ml and 908 copies/ml and 952 copies/ml and 336 copies/ml and 540 copies/ml and 1480 copies/ml and 420 copies/ml and 416 copies/ml and 412 copies/ml
COc1cc2nc(N3CCCN(C)CC3)nc(NC3CCN(Cc4ccccc4)CC3)c2cc1OC [BIX-01294],% of reactivation,[1]; 10 patients (Table 4),80%
same,concentration of viral RNA in culture supernatants,"[1]; one line per patient culture (Table 4), I = below the threshold",412 copies/ml and 1 780 copies/ml and 1 360 copies/ml and 665 copies/ml and 1624 copies/ml and 1385 copies/ml and 250 copies/ml and 4292 copies/ml
same,concentration of viral RNA in culture supernatants,[1]; [4],665 copies/ml and 1624 copies/ml and 1385 copies/ml and 250 copies/ml and 4292 copies/ml and 412 copies/ml and 1780 copies/ml and 1360 copies/ml
same,"reactivated HIV-1 expression, share of resting CD4+ T-cell cultures",[1]; cultures from HIV-1+ cART-treated patients (Table 4),80%
same,Reactivated patients,[1]; of 10 patients (Table 4),8
